Experimental data from ChEMBL document CHEMBL1201862, “PubChem BioAssay data set” (2004).
The source made the active and inactive calls. No stated cut-off is given here; in the data, actives have a measured IC50 and inactives only a lower limit.

These molecules were tested against Envelope glycoprotein gp160 (Human immunodeficiency virus 1, UniProt Q6QLK5) (assay: cell-free HIV fusion peptide-binding blockers – biochemical, uHTS, fluorescence dequenching, […] (AID 1986)).
Envelope glycoprotein gp160, sequence (Q6QLK5 whole entry, the tested form may be a part): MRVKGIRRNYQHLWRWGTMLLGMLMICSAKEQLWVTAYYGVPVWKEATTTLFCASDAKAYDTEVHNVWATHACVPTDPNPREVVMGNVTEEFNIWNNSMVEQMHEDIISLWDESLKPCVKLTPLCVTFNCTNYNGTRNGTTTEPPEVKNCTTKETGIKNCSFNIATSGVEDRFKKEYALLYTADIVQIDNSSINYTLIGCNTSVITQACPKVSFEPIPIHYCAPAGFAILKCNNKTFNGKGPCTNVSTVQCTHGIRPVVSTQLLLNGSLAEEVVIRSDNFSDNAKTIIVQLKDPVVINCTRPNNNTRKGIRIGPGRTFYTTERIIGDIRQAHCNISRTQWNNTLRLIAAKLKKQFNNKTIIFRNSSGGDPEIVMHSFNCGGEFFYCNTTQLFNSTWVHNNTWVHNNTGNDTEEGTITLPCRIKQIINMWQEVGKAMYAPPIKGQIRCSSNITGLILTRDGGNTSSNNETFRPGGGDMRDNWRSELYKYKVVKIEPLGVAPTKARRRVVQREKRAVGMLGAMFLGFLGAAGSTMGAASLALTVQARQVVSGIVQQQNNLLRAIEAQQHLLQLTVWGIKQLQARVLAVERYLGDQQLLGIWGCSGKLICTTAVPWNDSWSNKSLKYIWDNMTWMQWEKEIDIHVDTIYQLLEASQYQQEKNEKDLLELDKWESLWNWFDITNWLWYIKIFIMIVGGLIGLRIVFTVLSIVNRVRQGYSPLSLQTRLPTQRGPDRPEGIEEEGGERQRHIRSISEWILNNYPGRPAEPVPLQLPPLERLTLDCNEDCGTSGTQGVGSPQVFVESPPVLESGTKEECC
In the case of `O=C(O)c1ccc(N2C(=O)/C(=C/c3ccc(-c4ccc([N+](=O)[O-])cc4)o3)C=C2c2ccccc2)cc1`, the IC50 is reported as 9.9 µM (active). In the case of `COc1cc([N+](=O)[O-])cc(/C=C2/SC(=S)N(Cc3ccccc3)C2=O)c1O`, the IC50 is reported as 32.6 µM (active). For `CC(=O)Nc1sc(/C(C#N)=C/c2ccc(Cl)c(Cl)c2)nc1-c1ccc(C)cc1`, the IC50 was 2.04 µM (active). With `CCOC(=O)C1=C(C)N=c2s/c(=C\c3ccc(OCC(=O)O)cc3)c(=O)n2C1c1ccc(Cl)cc1` (centres undefined) the IC50 was 13.8 µM (active).
